Patent US20230085307A1, “PYRIDAZINONE COMPOUND AND HERBICIDE” (NISSAN CHEMICAL CORPORATION, priority 2019, published 2023)

Columns and labels:
late watergrass = test: Test Example 2: herbicidal activity, application during weed generation under submerged conditions (Table 17, symbol A); format: in vivo, late watergrass (Echinochloa oryzicola); details: AAH 320 g/ha; application during weed generation, submerged conditions
Method in brief: (§1)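 In this pot test, flooded alluvial soil (water depth 4 cm) holds all three species sown as a mixture. Once seedlings have one to two leaves, the compound's emulsion, thinned with water to the intended dose, is poured on the water; grading follows after three weeks on the earlier criteria.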

oval-leafed pondweed = test: Test Example 2: herbicidal activity, application during weed generation under submerged conditions (Table 17, symbol C); format: in vivo, oval-leafed pondweed (Monochoria vaginalis); details: AAH 320 g/ha; application during weed generation, submerged conditions
Method in brief: as §1

redroot pigweed = test: Test Example 5: herbicidal effect by foliage application, plastic box (Table 20, symbol N); format: in vivo, redroot pigweed (Amaranthus retroflexus); details: foliage application, AAH 320 g/ha, three weeks after application
Method in brief: (§2)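 Plants sown in sterilized diluvial soil and grown 14 days in a greenhouse at 25° C to 30° C, then sprayed on the foliage with the compound's emulsion diluted in water to a predetermined herbicide amount. Injury to weeds and crops scored three weeks after application on a visual rating scale.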

velvetleaf = test: Test Example 5: herbicidal effect by foliage application, plastic box (Table 20, symbol M); format: in vivo, velvetleaf (Abutilon theophrasti); details: foliage application, AAH 320 g/ha, three weeks after application
Method in brief: as §2

windgrass = test: Test Example 4: herbicidal effect by soil treatment (Table 19, symbol L); format: in vivo, windgrass (Apera spica-venti); details: AAH 320 g/ha
Method in brief: (§3)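 Three weeks of greenhouse growth at 25° C. to 30° C. followed a uniform surface spray of water-diluted emulsion at a predetermined herbicide amount. Seeds had been sown beforehand under about 1.5 cm of sterilized diluvial soil. Grading followed criteria set out in an earlier test.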

green foxtail = test: Test Example 5: herbicidal effect by foliage application, plastic box (Table 20, symbol G); format: in vivo, green foxtail (Setaria viridis); details: foliage application, AAH 320 g/ha, three weeks after application
Method in brief: as §2

Italian ryegrass [1] = test: Test Example 5: herbicidal effect by foliage application, plastic box (Table 20, symbol K); format: in vivo, Italian ryegrass (Lolium multiflorum); details: foliage application, AAH 320 g/ha, three weeks after application
Method in brief: as §2

Italian ryegrass [2] = test: Test Example 4: herbicidal effect by soil treatment (Table 19, symbol K); format: in vivo, Italian ryegrass (Lolium multiflorum); details: AAH 320 g/ha
Method in brief: as §3

wild oat = test: Test Example 4: herbicidal effect by soil treatment (Table 19, symbol I); format: in vivo, wild oat (Avena fatua); details: AAH 320 g/ha
Method in brief: as §3

southern crabgrass = test: Test Example 4: herbicidal effect by soil treatment (Table 19, symbol F); format: in vivo, southern crabgrass (Digitaria ciliaris); details: AAH 320 g/ha
Method in brief: as §3

Chinese sprangletop = test: Test Example 3: herbicidal effect by foliage application, Wagner pot (Table 18, symbol D); format: in vivo, chinese sprangletop (Leptochloa chinensis); details: 320 g/ha
Method in brief: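 Plants were sown in alluvial soil held under 0.1–0.5 cm standing water and grown 14 days in a greenhouse at 25–30 °C. An emulsifiable formulation, water-diluted to the set dose, was then sprayed onto the foliage, and effects were scored three weeks later using previously defined criteria.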

lambsquarters [3] = test: Test Example 4: herbicidal effect by soil treatment (Table 19, symbol O); format: in vivo, lambsquarters (Chenopodium album); details: AAH 320 g/ha
Method in brief: as §3

lambsquarters [4] = test: Test Example 5: herbicidal effect by foliage application, plastic box (Table 20, symbol O); format: in vivo, lambsquarters (Chenopodium album); details: foliage application, AAH 320 g/ha, three weeks after application
Method in brief: as §2

chickweed = test: Test Example 5: herbicidal effect by foliage application, plastic box (Table 20, symbol P); format: in vivo, common chickweed (Stellaria media); details: foliage application, AAH 320 g/ha, three weeks after application
Method in brief: as §2

blackgrass = test: Test Example 4: herbicidal effect by soil treatment (Table 19, symbol J); format: in vivo, blackgrass (Alopecurus myosuroides); details: AAH 320 g/ha
Method in brief: as §3

Japanese bulrush = test: Test Example 1: herbicidal activity, application before weed generation under submerged conditions (Table 16, symbol B); format: in vivo, Japanese bulrush (Schoenoplectus juncoides); details: 320 g/ha applied herbicide
Method in brief: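 Emulsion formulation, water-diluted to set dose, was put onto the flooded surface (4 cm depth, alluvial soil) the same day weeds were sown and 2.5-leaf rice transplanted. After 3 weeks at 25-30 °C under glass, each species was rated 0 (≤5% kill) to 5 (≥90% kill).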

Compound: Cc1nn(C)c(=O)c(-c2c(-c3ccc(OCc4ccccc4)cc3)sc3ccccc23)c1O [1-133]
- herbicidal effect rating, A: late watergrass (late watergrass): 1 (Herbicidal rate of 5% or more and less than 20%)
- herbicidal effect rating, C: oval-leafed pondweed (oval-leafed pondweed): 3 (Herbicidal rate of 40% or more and less than 70%)
- N: redroot pigweed, herbicidal effect (redroot pigweed): 5 (Herbicidal rate of 90% or more (almost completely withered))
- M: velvetleaf, herbicidal effect (velvetleaf): 0 (Herbicidal rate of 5% or less (almost no effect))
- L: windgrass, herbicidal effect rating (windgrass): 0 (Herbicidal rate of 5% or less (almost no effect))
- G: green foxtail, herbicidal effect (green foxtail): 5 (Herbicidal rate of 90% or more (almost completely withered))
- K: Italian ryegrass, herbicidal effect (Italian ryegrass [1]): 1 (Herbicidal rate of 5% or more and less than 20%)
- K: Italian ryegrass, herbicidal effect rating (Italian ryegrass [2]): 0 (Herbicidal rate of 5% or less (almost no effect))
- I: wild oat, herbicidal effect rating (wild oat): 0 (Herbicidal rate of 5% or less (almost no effect))
- F: southern crabgrass, herbicidal effect rating (southern crabgrass): 2 (Herbicidal rate of 20% or more and less than 40%)
- herbicidal effect on D (Chinese sprangletop), rating 0-5 (Chinese sprangletop): 3 (Herbicidal rate of 40% or more and less than 70%)
- O: lambsquarters, herbicidal effect rating (lambsquarters [3]): 1 (Herbicidal rate of 5% or more and less than 20%)
- O: lambsquarters, herbicidal effect (lambsquarters [4]): 5 (Herbicidal rate of 90% or more (almost completely withered))
- P: chickweed, herbicidal effect (chickweed): 5 (Herbicidal rate of 90% or more (almost completely withered))
- J: blackgrass, herbicidal effect rating (blackgrass): 0 (Herbicidal rate of 5% or less (almost no effect))
- Herbicidal effect on B: Japanese bulrush (grade 0-5) (Japanese bulrush): 5 (Herbicidal rate of 90% or more (almost completely withered))

Compound: Cc1nn(C)c(=O)c(-c2c(-c3ccc(OCC4CC4(F)F)cc3)sc3ccccc23)c1O (centres unmarked) [1-138]
- herbicidal effect rating, A: late watergrass (late watergrass): 0 (Herbicidal rate of 5% or less (almost no effect))
- herbicidal effect rating, C: oval-leafed pondweed (oval-leafed pondweed): 0 (Herbicidal rate of 5% or less (almost no effect))
- N: redroot pigweed, herbicidal effect (redroot pigweed): 3 (Herbicidal rate of 40% or more and less than 70%)
- M: velvetleaf, herbicidal effect (velvetleaf): 4 (Herbicidal rate of 70% or more and less than 90%)
- L: windgrass, herbicidal effect rating (windgrass): 0 (Herbicidal rate of 5% or less (almost no effect))
- G: green foxtail, herbicidal effect (green foxtail): 3 (Herbicidal rate of 40% or more and less than 70%)
- K: Italian ryegrass, herbicidal effect (Italian ryegrass [1]): 5 (Herbicidal rate of 90% or more (almost completely withered))
- K: Italian ryegrass, herbicidal effect rating (Italian ryegrass [2]): 5 (Herbicidal rate of 90% or more (almost completely withered))
- I: wild oat, herbicidal effect rating (wild oat): 0 (Herbicidal rate of 5% or less (almost no effect))
- F: southern crabgrass, herbicidal effect rating (southern crabgrass): 0 (Herbicidal rate of 5% or less (almost no effect))
- herbicidal effect on D (Chinese sprangletop), rating 0-5 (Chinese sprangletop): 3 (Herbicidal rate of 40% or more and less than 70%)
- O: lambsquarters, herbicidal effect rating (lambsquarters [3]): 5 (Herbicidal rate of 90% or more (almost completely withered))
- O: lambsquarters, herbicidal effect (lambsquarters [4]): 4 (Herbicidal rate of 70% or more and less than 90%)
- P: chickweed, herbicidal effect (chickweed): 5 (Herbicidal rate of 90% or more (almost completely withered))
- J: blackgrass, herbicidal effect rating (blackgrass): 3 (Herbicidal rate of 40% or more and less than 70%)
- Herbicidal effect on B: Japanese bulrush (grade 0-5) (Japanese bulrush): 3 (Herbicidal rate of 40% or more and less than 70%)
